“And” between values parts separate entries of the source, which are not always exact repeats. Identical values can stand only once. Inconclusive results and toxic doses are left out. Rule for the calls: active = survival T/C of 150% or more; inactive = T/C below 125% in these data.
System: CD2F1 mice, L1210 leukemia ip, survival T/C
Assay: NCI In Vivo Anticancer Drug Screen. Data for tumor model L1210 Leukemia (intraperitoneal) in CD2F1 (CDF1) mice
Settings: endpoint: mean survival time, higher = longer survival
Procedure, shortened: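 Compound-dosed mice with transplantable tumor versus matched vehicle controls; endpoint ratio T/C reported.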

[1] = dose: 100.0 mg/kg/injection, schedule: Q04DX002 (ip), vehicle: saline
[2] = dose: 200.0 mg/kg/injection, schedule: Q04DX002 (ip), vehicle: saline
[3] = dose: 100.0 mg/kg/injection, schedule: Q01DX009 (ip), vehicle: other
[4] = dose: 100.0 mg/kg/injection, schedule: Q04DX003 (ip), vehicle: other
[5] = dose: 200.0 mg/kg/injection, schedule: Q01DX009 (ip), vehicle: other
[6] = dose: 200.0 mg/kg/injection, schedule: Q04DX003 (ip), vehicle: other

Measured: T/C

OCC(O)C(O)C(O)C(O)C(O)CO (stereo not drawn)
inactive: dose: 50.0 mg/kg/injection, schedule: Q01DX009 (ip), vehicle: Klucel (hydroxypropylcellulose) (HPC) 98 % of control | dose: 100.0 mg/kg/injection, schedule: Q01DX009 (ip), vehicle: Klucel (hydroxypropylcellulose) (HPC) 102 % of control | dose: 100.0 mg/kg/injection, schedule: Q01DX009 (ip), vehicle: saline 98 % of control | [1] 100 % of control | dose: 200.0 mg/kg/injection, schedule: Q01DX009 (ip), vehicle: Klucel (hydroxypropylcellulose) (HPC) 98 % of control | dose: 200.0 mg/kg/injection, schedule: Q01DX009 (ip), vehicle: saline 91 % of control | [2] 107 % of control | dose: 400.0 mg/kg/injection, schedule: Q01DX009 (ip), vehicle: saline 102 % of control | dose: 400.0 mg/kg/injection, schedule: Q04DX002 (ip), vehicle: saline 96 % of control

CC(C)c1ccc2c(c1)CCC1C(C)(CN)CCCC21C (stereo not drawn) (tested in a mixture with another compound)
inactive: dose: 6.25 mg/kg/injection, schedule: Q01DX001 (ip), vehicle: saline with Tween-80 91 % of control | dose: 6.25 mg/kg/injection, schedule: Q01DX009 (ip), vehicle: saline with Tween-80 101 % of control | dose: 12.5 mg/kg/injection, schedule: Q01DX001 (ip), vehicle: saline with Tween-80 96 % of control | dose: 12.5 mg/kg/injection, schedule: Q01DX009 (ip), vehicle: saline with Tween-80 101 % of control | dose: 25.0 mg/kg/injection, schedule: Q01DX001 (ip), vehicle: saline with Tween-80 87 % of control | dose: 25.0 mg/kg/injection, schedule: Q01DX009 (ip), vehicle: saline with Tween-80 101 % of control

CCOC(=O)Nc1ccc2c(c1)Cc1cc(N=Cc3ccc4c(c3)OCO4)ccc1-2
inactive: dose: 100.0 mg/kg/injection, schedule: Q01DX001 (ip), vehicle: carboxymethylcellulose (CMC) 105 % of control | dose: 200.0 mg/kg/injection, schedule: Q01DX001 (ip), vehicle: carboxymethylcellulose (CMC) 100 % of control | dose: 400.0 mg/kg/injection, schedule: Q01DX001 (ip), vehicle: carboxymethylcellulose (CMC) 97 % of control

CCCC(CC(=O)O)(C(=O)O)c1ccccc1 (stereo not drawn)
inactive: [3] 108 % of control | [4] 93 % of control | [5] 91 % of control | [6] 97 % of control | dose: 400.0 mg/kg/injection, schedule: Q01DX009 (ip), vehicle: other 91 % of control | dose: 400.0 mg/kg/injection, schedule: Q04DX003 (ip), vehicle: other 98 % of control

Cc1cccc(CN=C(N)CCl)n1
inactive: [1] 111 % of control | [2] 116 % of control

O=c1[nH]c(=O)n(C2CC(O)C(CO)O2)cc1COCc1ccccc1 (stereo not drawn)
inactive: dose: 100.0 mg/kg/injection, schedule: Q01DX005 (ip), vehicle: saline 95 % of control | dose: 200.0 mg/kg/injection, schedule: Q01DX005 (ip), vehicle: saline 105 % of control and 97 % of control

CN(C)c1ccc(CN2CCCN(Cc3ccc(N(C)C)cc3)C2c2ccncc2)cc1
inactive: dose: 100.0 mg/kg/injection, schedule: Q01DX009 (ip), vehicle: saline with Tween-80 94 % of control | dose: 100.0 mg/kg/injection, schedule: Q04DX003 (ip), vehicle: saline with Tween-80 104 % of control | dose: 200.0 mg/kg/injection, schedule: Q01DX009 (ip), vehicle: saline with Tween-80 95 % of control | dose: 200.0 mg/kg/injection, schedule: Q04DX003 (ip), vehicle: saline with Tween-80 103 % of control | dose: 400.0 mg/kg/injection, schedule: Q01DX009 (ip), vehicle: saline with Tween-80 95 % of control | dose: 400.0 mg/kg/injection, schedule: Q04DX003 (ip), vehicle: saline with Tween-80 103 % of control

CC(=O)Nc1nnn(C)n1
inactive: dose: 100.0 mg/kg/injection, schedule: Q04DX003 (ip), vehicle: saline 103 % of control | dose: 200.0 mg/kg/injection, schedule: Q04DX003 (ip), vehicle: saline 100 % of control | dose: 400.0 mg/kg/injection, schedule: Q04DX003 (ip), vehicle: saline 101 % of control

CC(C)(CCC#N)C(O)c1ccccc1 (stereo not drawn)
inactive: dose: 100.0 mg/kg/injection, schedule: Q04DX002 (ip), vehicle: other 98 % of control | dose: 200.0 mg/kg/injection, schedule: Q04DX002 (ip), vehicle: other 102 % of control | dose: 400.0 mg/kg/injection, schedule: Q04DX002 (ip), vehicle: other 105 % of control

CCN1C(=O)CSC1=S
inactive: dose: 50.0 mg/kg/injection, schedule: Q01DX009 (ip), vehicle: other 88 % of control | dose: 100.0 mg/kg/injection, schedule: Q01DX001 (ip), vehicle: other 94 % of control | [3] 108 % of control | [4] 95 % of control | dose: 200.0 mg/kg/injection, schedule: Q01DX001 (ip), vehicle: other 93 % of control | [5] 95 % of control | [6] 93 % of control | dose: 400.0 mg/kg/injection, schedule: Q01DX001 (ip), vehicle: other 91 % of control

Source: PubChem BioAssay AID256 (DTP/NCI, 2004)
